Test results taken from PMC8617681 (Pharmaceuticals, 2021).

Columns and labels:
human OATP1B3 = biological target: T1, human OATP1B3 (Homo sapiens, UniProt Q9NPD5); assay: Cellular uptake in OATP1B3-overexpressing HEK293 cells; type: in vitro ADME; conditions: 5 µM, 2.5 min incubation, HEK293 OATP1B3
T1 construct: Werner Siegmund and Dr. Markus Keiser (University of Greifswald); host or cells: HEK293
T1 sequence (Q9NPD5 1-702): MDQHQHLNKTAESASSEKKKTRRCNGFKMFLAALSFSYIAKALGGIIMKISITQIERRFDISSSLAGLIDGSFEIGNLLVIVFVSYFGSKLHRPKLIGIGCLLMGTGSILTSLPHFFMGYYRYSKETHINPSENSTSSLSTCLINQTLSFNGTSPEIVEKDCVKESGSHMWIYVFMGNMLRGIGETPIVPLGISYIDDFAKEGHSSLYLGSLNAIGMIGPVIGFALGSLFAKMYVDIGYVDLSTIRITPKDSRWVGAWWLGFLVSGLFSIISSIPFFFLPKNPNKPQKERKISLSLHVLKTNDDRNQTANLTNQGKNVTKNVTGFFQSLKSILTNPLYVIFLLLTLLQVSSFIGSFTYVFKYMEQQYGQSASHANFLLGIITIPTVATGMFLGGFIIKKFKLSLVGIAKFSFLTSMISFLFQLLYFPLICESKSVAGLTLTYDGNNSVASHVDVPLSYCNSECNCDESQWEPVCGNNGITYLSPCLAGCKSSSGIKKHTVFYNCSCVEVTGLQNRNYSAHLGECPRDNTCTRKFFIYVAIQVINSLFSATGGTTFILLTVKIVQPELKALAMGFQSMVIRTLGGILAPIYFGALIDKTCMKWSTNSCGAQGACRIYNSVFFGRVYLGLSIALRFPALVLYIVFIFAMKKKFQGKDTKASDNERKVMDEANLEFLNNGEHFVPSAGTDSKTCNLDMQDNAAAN
Experimental: HEK293 cells, vector-transfected or human (h)SLCO1A2, hSLCO1B1 or hSLCO1B3 cDNA-transfected were kind gifts from Prof. Werner Siegmund and Dr. Markus Keiser (University of Greifswald, Greifswald, Germany). All the HEK293 cell lines were maintained in DMEM supplemented with 10% (v/v) FBS, 1% penicillin–streptomycin mix at 37 °C in 5% (v/v) CO2 and 500 μg/mL G418. Cells were first seeded in 12-well plates [coated with 50 mg/L poly (l-lysine) and 50 mg/L poly (l-ornithine)] at a density of 1.0 × 10^5 cells/well. For the uptake study, in order to induce the expression of OATP transporters, the cell culture medium was replaced with culture medium supplemented with 5 mM sodium butyrate 24 h before performing the uptake assay.
The uptake transport study was performed as described previously. […] The Krebs–Henseleit solution was prepared from Krebs–Henseleit-buffer modified powder and supplemented with 25 mM NaHCO3 and 2.5 mM CaCl2 adjusted to pH 6.4 with 1 M HCL. At 2.5 min, the incubation buffer was removed, and uptake was terminated by adding 1 mL of ice-cold Krebs–Henseleit buffer, followed by two times washing with 1 mL of ice-cold Krebs–Henseleit buffer. […] The cellular protein amount was determined by the Bradford method using 10 μL of the cell lysates with bovine serum albumin as a standard.

[1] = 8 h pharmacokinetic study in wild-type, Cyp3a-/- and Cyp3aXAV mice; conditions: mouse, in vivo, po, 10 mg/kg; for concentration at 8 h / AUC(0-t) / Cmax / Tmax / SIC percentage of dose: female; for SIC percentage of dose: 8 h
Experimental: Many drugs and prodrugs are metabolized by CYP3A, which can therefore restrict their oral exposure.
Mice were housed and handled according to institutional guidelines complying with Dutch and EU legislation. All experimental animal protocols were evaluated and approved by the institutional animal care and use committee. Wild-type, Abcb1a/1b^-/-, Abcg2^-/-, Abcb1a/1b; Abcg2^-/-, Slco1a/1b^-/- male mice, and Cyp3a^-/- and Cyp3aXAV female mice, all of a >99% FVB genetic background, were used between 9 and 16 weeks of age. […] All experimental animal protocols (WP9450, 9669, 9760), including power calculations, designed under the nationally approved DEC/CCD project AVD301002016595, were evaluated and approved by the institutional animal care and use committee of The Netherlands Cancer Institute. […]
For the 4 h transporter experiments, tail-vein blood samples were collected at 0.125, 0.25, 0.5, 1, and 2 h time points after oral administration, respectively. For the CYP3A 8 h experiments, tail-vein blood sampling was performed at 0.25, 0.5, 1, 2, and 4 h, respectively. While for elacridar inhibition experiments, tail-vein blood samples were collected at 0.125, 0.25, 0.5, and 1 h time points after oral administration, respectively. Blood sample collection was performed using microvettes containing dipotassium EDTA. At the last time point in each experiment (2, 4 or 8 h), mice were anesthetized with 5% isoflurane and blood was collected by cardiac puncture. Blood samples were collected in Eppendorf tubes containing heparin as an anticoagulant. The mice were then sacrificed by cervical dislocation and brain, liver, kidney, lung, small intestine and testis were rapidly removed. Plasma was isolated from the blood by centrifugation at 9000× g for 6 min at 4 °C, and the plasma fraction was collected and stored at −30 °C until analysis. Organs were homogenized with 4% (w/v) bovine serum albumin and stored at −30 °C until analysis.
Pharmacokinetic parameters were calculated by noncompartmental methods using the PK solver software. The area under the plasma concentration–time curve (AUC) was calculated using the trapezoidal rule, without extrapolating to infinity. The peak plasma concentration (Cmax) and the time of maximum plasma concentration (Tmax) were estimated from the original (individual mouse) data. One-way analysis of variance (ANOVA) was used when multiple groups were compared and the Tukey post hoc correction was used to accommodate multiple testing. The two-sided unpaired Student’s t-test was used when treatments or differences between two specific groups were compared using the software GraphPad Prism 8 (GraphPad Software Inc., La Jolla, CA, USA). All the data were log-transformed before statistical tests were applied. Differences were considered statistically significant when p < 0.05. All data are presented as geometric mean ± SD.

[2] = tested on: RET-mutant medullary thyroid cancer; conditions: clinical phase 1 study; cited from earlier work

Compound: COc1ccc(CN2C3CC2CN(c2ccc(-c4cc(OCC(C)(C)O)cn5ncc(C#N)c45)cn2)C3)cn1 [selpercatinib]
- uptake compared to vector control cells (human OATP1B3): did not observe any significant increase in the uptake
- concentration at 8 h ([1]; Cyp3a-/- (>99% FVB genetic background), CLiver): 7900 ± 1270 ng/g
- concentration at 8 h ([1]; Cyp3a-/- (>99% FVB genetic background), CSI (small intestine tissue concentration)): 6380 ± 930 ng/g
- concentration at 8 h ([1]; Cyp3a-/- (>99% FVB genetic background), Cbrain): 86.2 ± 24.2 ng/g
- concentration at 8 h ([1]; Cyp3aXAV (>99% FVB genetic background), CLiver): 4390 ± 755 ng/g
- concentration at 8 h ([1]; Cyp3aXAV (>99% FVB genetic background), CSI (small intestine tissue concentration)): 5030 ± 347 ng/g
- AUC(0-t) ([1]; FVB, Cyp3a-/-): 72200 ng·h/mL
- Cmax ([1]; FVB, Cyp3a-/-): 12300 ng/mL
- Tmax ([1]; FVB, Cyp3a-/-): 1.4 ± 1.3 h
- SIC percentage of dose ([1]; FVB, Cyp3a-/-): 1.4 ± 0.6 %
- concentration at 8 h ([1]; FVB, Cyp3a-/-, CSIC (small intestine contents concentration)): 44900 ng/g
- AUC(0-t) ([1]; FVB, wild-type): 52300 ng·h/mL
- Cmax ([1]; FVB, wild-type): 8560 ± 1300 ng/mL
- Tmax ([1]; FVB, wild-type): 1.5 ± 1.3 h
- SIC percentage of dose ([1]; FVB, wild-type): 2.5 ± 0.9%
- concentration at 8 h ([1]; FVB, wild-type, CSIC (small intestine contents concentration)): 83900 ng/g
- concentration at 8 h ([1]; FVB, wild-type, Cbrain): 82.4 ± 16.8 ng/g
- AUC(0-t) [1]: 45800 ng·h/mL
- Cmax [1]: 9480 ± 548 ng/mL
- Tmax [1]: 0.29 ± 0.1 h
- SIC percentage of dose [1]: 1.5 ± 0.5%
- concentration at 8 h ([1]; CSIC (small intestine contents concentration)): 48500 ng/g
- concentration at 8 h ([1]; Cbrain): 51 ± 15.2 ng/g
- concentration at 8 h ([1]; wild-type (>99% FVB genetic background), CLiver): 8260 ± 1620 ng/g
- concentration at 8 h ([1]; wild-type (>99% FVB genetic background), CSI (small intestine tissue concentration)): 7300 ± 1120 ng/g
- abnormal external behavior (acute toxicity) [1]: did not observe any abnormal external behavior
- overall response rate [2]: 45%
